Source: patent publication EP4741383A1, “COMPOUND AND USE THEREOF AS ANTI-CANCER DRUG” (Tyligand Bioscience (Shanghai) Limited, priority 2023, dated 2025)

Experiments:
MeWo = assay: CellTiter-Glo cell proliferation inhibition, MeWo; format: cell-based, human; conditions: for IC50: MeWo cells, CellTiter-Glo
Method: (§1) In this study, the CellTiter-Glo® Luminescent Cell Viability Assay kit from Promega was used to evaluate the inhibitory effects of the disclosed compounds on the proliferation of cell lines KYSE520 (a human esophageal squamous cell carcinoma cell line dependent on SHP2 for growth), MeWo (a human malignant melanoma cell line), and MV4-11 (an RTK-mutant human acute monocytic leukemia cell line).
Using essentially the same experimental materials, MeWo cells (ATCC, catalog #HTB-65) were treated similarly: when thawing the cells, the cryovial was rapidly shaken in a 37 °C water bath to thaw the cells within 1 minute. The thawed cell suspension was mixed with MEM/EBSS culture medium containing 10% FBS (HyClone, catalog #SH30024.01), centrifuged at 1000 rpm for 5 minutes, and the supernatant was discarded. The cell pellet was resuspended in 5 mL of complete culture medium (MEM/EBSS medium containing 10% FBS), placed in a cell culture flask with 25 cm^2 of bottom area, and cultured in a cell culture incubator at 37 °C, 95% humidity, and 5% CO2. Cell passaging was performed when the cell confluence reached approximately 80%. During cell passaging, the old culture medium was discarded, the cells were washed once with DPBS, and 1 mL of trypsin was added to digest the cells. When the cells dispersed into single cells and detached from the bottom of the cell culture flask, 3 mL of new complete culture medium was added to stop the digestion. After thoroughly mixing the cell suspension, 1/5 of the cell suspension was retained, 5 mL of new complete culture medium was added, and after thorough mixing, the cells were placed in a cell culture flask for further culture. Cell plating was performed when the cell confluence again reached approximately 80%. During cell plating, following the cell passaging method, 1/5 of the cell suspension was retained for further culture, and the remaining 4/5 of the cell suspension was placed in a 15 mL centrifuge tube. Cell viability was determined using the trypan blue exclusion method to ensure that cell viability was above 90%. A cell suspension with a density of 2.22 × 10^4 cells/mL was prepared using MEM/EBSS culture medium containing 5% FBS. 90 µL of the cell suspension was added to a 96-well cell culture plate, resulting in a cell density of 2000 viable cells/well in the cell culture plate. A control group without cells and without compounds, containing only complete culture medium (i.e., culture medium control), and a control group without compounds but containing cells (i.e., cell control) were set up. The cell plate was cultured overnight in the cell culture incubator. First, a 10 mM stock solution of the compound (Example compound and positive control compound 11a-1) in DMSO was serially diluted with DMSO at a 3-fold dilution, down to the 9th concentration. A 10th concentration containing only DMSO (without the compound) was also prepared as a control. Then, the DMSO solutions containing different concentrations of the compound were diluted 100-fold with complete culture medium, resulting in a 1% DMSO concentration in each solution. Finally, 10 µL of each solution was added to the corresponding wells of the cell culture plate, resulting in a starting compound concentration of 10 µM, with a 3-fold dilution between adjacent concentrations, and a 0.1% DMSO concentration in the cell culture plate. The cell plates were then incubated in a cell culture incubator for 72 hours.
(§2) For endpoint detection, CellTiter-Glo reagent (Promega, catalog number #G7573, CellTiter-Glo® Luminescent Cell Viability Assay Kit) was melt and each cell plate was moved to room temperature for equilibration for 30 minutes. 75 µL (KYSE520 cells) or 50 µL (MeWo cells and MV 4-11 cells) of CellTiter-Glo was added to each well of the corresponding cell plate. The plates were shaken on a track-mounted shaker for 2 minutes to fully lyse the cells. The cell plates were kept at room temperature for 8 minutes to stabilize the luminescence signal. […]

MV4-11 = assay: CellTiter-Glo cell proliferation inhibition, MV4-11; format: cell-based, human; conditions: for IC50: Homo sapiens, MV4-11 cells, 72 hours, CellTiter-Glo, read-out: IC50 (µM) M V4-11
Source text: as §1
Using essentially the same experimental materials, MV4-11 cells (Nanjing Cobio Biotechnology Co., Ltd., Catalog #CBP60522) were treated similarly: when thawing the cells, the cryovial was rapidly shaken in a 37 °C water bath to thaw within 1 minute. The thawed cell suspension was mixed with IMDM culture medium containing 10% FBS (HyClone, Catalog #SH30228.01), centrifuged at 1000 rpm for 7 minutes, and the supernatant was discarded. The cell pellet was resuspended in 5 mL of complete culture medium (IMDM medium containing 10% FBS) placed in a cell culture flask with 25 cm^2 of bottom area, and cultured in a cell culture incubator at 37 °C, 95% humidity, and 5% CO2. Cell passaging was performed when the cell density reached approximately 10^6 cells/mL. During cell passaging, the old cell suspension was thoroughly mixed, 1/5 of the cell suspension was retained, and 4 mL of new complete culture medium was added. After thorough mixing, the cells were placed back in the cell culture incubator for further culture. Cell plating was performed when the cell density again reached approximately 10^6 cells/mL. During cell plating, following the cell passage method, 1/5 of the cell suspension was retained for continued culture, and the remaining 4/5 of the cell suspension was placed in a 15 mL centrifuge tube. Cell viability was determined using the trypan blue exclusion method to ensure that cell viability was above 90%. A cell suspension with a density of 1.11 × 10^5 viable cells/mL was prepared using complete culture medium. 90 µL of the cell suspension was added to a 96-well cell culture plate, resulting in a cell density of 10000 viable cells/well. A control group without cells and without compounds, containing only complete culture medium (i.e., culture medium control) and a control group without compounds but containing cells (i.e., cell control) were set up. The cell plate was incubated overnight in the cell culture incubator. First, a 10 mM stock solution of the compound (Example compound and positive control compound 11a-1) in DMSO was serially diluted with DMSO at a 3-fold dilution, down to the 9th concentrations. A 10th concentration containing only DMSO (without the compound) was also prepared as a control. Then, the DMSO solutions containing different concentrations of the compound were diluted 100-fold with complete culture medium, resulting in a DMSO concentration of 1% in each solution. Finally, 10 µL of each solution was added to the corresponding wells of a cell culture plate, resulting in an initial compound concentration of 10 µM, with a 3-fold dilution between adjacent concentrations, and a DMSO concentration of 0.1% in the cell culture plate. The cell plate was then incubated in a cell culture incubator for 72 hours.
as §2, with “signal. A multi-mode microplate reader (PerkinEImer, Envision 2105 Multimode plate Read) was used to full-wavelength scan the luminescence value of each well.” for “signal.”

Structure (SMILES)	IC50 (MeWo; Homo sapiens, MeWo, 72 h) [µM]	IC50 (MV4-11) [µM]	IC50 (MeWo; 72 hours) [µM]	IC50 against Mewo cells, fold lower than 11a-1 (MeWo; relative to 11a-1 (3.10 µM)) [fold]	IC50 against MV4-11 cells, fold lower than 11a-1 (MV4-11; relative to 11a-1 (5.13 µM)) [fold]
CC1(CO)CCN(c2ccc(NC(=O)C(=O)Nc3ccc(-c4cc5cc(F)c(-c6nnn[nH]6)cc5n4C4CCC4)cc3)cc2)CC1 [Example 40]	0.073	0.269			
CC1(n2c(-c3ccc(NC(=O)C(=O)Nc4ccc(-c5cnn(C6CCOCC6)c5)cc4)cc3)cc3cc(F)c(-c4nnn[nH]4)cc32)CC1 [Example 7]	0.111	0.254			
O=C(Nc1ccc(-c2cc3cc(F)c(-c4nnn[nH]4)cc3n2C2CCC2)cc1)C(=O)Nc1ccc(N2CCC3(CC2)CC(CO)C3)cc1 [Example 96]	0.103	> 10			
O=C(Nc1ccc(-c2cc3cc(F)c(-c4nnn[nH]4)cc3n2C2CCC2)cc1)C(=O)Nc1ccc(N2CC3CC(O)CC3C2)cc1 (stereo not drawn) [Example 116]	0.067	0.263			
CC1(n2c(-c3ccc(NC(=O)C(=O)Nc4ccc(N5CCC6(CCOC6)CC5)cc4)cc3)cc3cc(F)c(-c4nnn[nH]4)cc32)CCC1 [Example 68]	0.06	0.06	0.031	100	85
O=C(Nc1ccc(-c2cc3cc(F)c(-c4nnn[nH]4)cc3n2C2CCC2)cc1)C(=O)Nc1ccc(N2CCC3(CC(O)C3)C2)cc1 (stereo not drawn) [Example 89]	0.036	0.095			
O=C(Nc1ccc(-c2cc3cc(F)c(-c4nnn[nH]4)cc3n2C2CCC2)cc1)C(=O)Nc1ccc(N2CCC3(CCOC3)C2)cc1 (stereo not drawn) [Example 61]	0.115	3.03			
CC1(n2c(-c3ccc(NC(=O)C(=O)Nc4ccc(N5CCC6(CC5)CC(CO)C6)cc4)cc3)cc3cc(F)c(-c4nnn[nH]4)cc32)CCC1 [Example 97]	0.11	0.305			
CC1(n2c(-c3ccc(NC(=O)C(=O)Nc4ccc(N5CCC6(CCOC6)CC5)cc4)cc3)cc3cc(F)c(-c4nnn[nH]4)cc32)CC1 [Example 70]	0.213	4.25			
CC1(n2c(-c3ccc(NC(=O)C(=O)Nc4ccc(-c5cnn(C6COC6)c5)cc4)cc3)cc3cc(F)c(-c4nnn[nH]4)cc32)CC1 [Example 6]	0.113	0.358			
O=C(Nc1ccc(-c2cc3cc(F)c(-c4nnn[nH]4)cc3n2C2CCC2)cc1)C(=O)Nc1ccc(N2CCC3(CCC(O)C3)CC2)cc1 (stereo not drawn) [Example 100]	0.038	0.126			
CC1(O)CC2(CCN(c3ccc(NC(=O)C(=O)Nc4ccc(-c5cc6cc(F)c(-c7nnn[nH]7)cc6n5C5CCC5)cc4)cc3)CC2)C1 [Example 94]	0.041	0.237			
O=C(Nc1ccc(-c2cc3cc(F)c(-c4nnn[nH]4)cc3n2C2CCC2)cc1)C(=O)Nc1ccc(N2CC3COCC3C2)cc1 (stereo not drawn) [Example 114]	0.078	0.156			
Cn1c(-c2cccc(NC(=O)C(=O)Nc3ccc(-c4ccsc4)cc3)c2)c(I)c2cc(C(=O)O)c(O)cc21 [Example 11a-1, reference compound]	3.1	5.13			
O=C(Nc1ccc(-c2cc3cc(F)c(-c4nnn[nH]4)cc3n2C2CCC2)cc1)C(=O)Nc1ccc(N2CCC3(CCOC3)CC2)cc1 [Example 67]	0.038	> 10			
CC1(O)CCC2(CCN(c3ccc(NC(=O)C(=O)Nc4ccc(-c5cc6cc(F)c(-c7nnn[nH]7)cc6n5C5CCC5)cc4)cc3)CC2)CC1 [Example 110]	0.086	0.133			
O=C(Nc1ccc(-c2cc3cc(F)c(-c4nnn[nH]4)cc3n2C2CCC2)cc1)C(=O)Nc1ccc(N2CCC(CCO)CC2)cc1 [Example 25]	0.04	0.108			
O=C(Nc1ccc(-c2cc3cc(F)c(-c4nnn[nH]4)cc3n2C2CCC2)cc1)C(=O)Nc1ccc(N2CCC(C3COC3)CC2)cc1 [Example 20]	0.042	> 10			
CC(C)(O)C1CCN(c2ccc(NC(=O)C(=O)Nc3ccc(-c4cc5cc(F)c(-c6nnn[nH]6)cc5n4C4CCC4)cc3)cc2)CC1 [Example 33]	0.117	> 10			
O=C(Nc1ccc(-c2cc3cc(F)c(-c4nnn[nH]4)cc3n2C2CCC2)cc1)C(=O)Nc1ccc(N2CCC3(CCOCC3)CC2)cc1 [Example 76]	0.041	0.173			
O=C(Nc1ccc(-c2cc3cc(F)c(-c4nnn[nH]4)cc3n2C2CCC2)cc1)C(=O)Nc1ccc(N2CCC3(CCC(O)CC3)CC2)cc1 [Example 108]	0.034	0.115			
